Legend:
Assay type in all cases: in vivo
[1] = system: umbrella sedge (Cyperus difformis); assay: Test B flooded paddy test plant response
Method in brief: (§1)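 Rice, umbrella sedge, ducksalad and barnyardgrass at 2-leaf stage; pots flooded to 3 cm, compounds applied into paddy water, depth held throughout. Greenhouse 13 to 15 days, then visual rating vs untreated controls on 0–100 scale (0 no effect, 100 complete control); dash means no test result.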

[2] = system: barnyardgrass (Echinochloa crus-galli); assay: Test B flooded paddy test plant response
Method in brief: as §1

[3] = system: ducksalad (Heteranthera limosa); assay: Test B flooded paddy test plant response
Method in brief: as §1

[4] = system: rice (Oryza sativa); assay: Test B flooded paddy test plant response
Method in brief: as §1

[5] = system: corn (Zea mays); assay: Test A pre-/postemergence plant response
Method in brief: (§2)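 Seeds sown in loam–sand blend; test chemicals in non-phytotoxic solvent with surfactant applied preemergence as directed soil spray and, concurrently, postemergence to plants 2–10 cm tall at one- to two-leaf stage. Greenhouse ~10 days, then visual injury rating vs untreated controls on 0–100 scale (0 = no effect, 100 = complete control).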

[6] = system: wheat (Triticum aestivum); assay: Test A pre-/postemergence plant response
Method in brief: as §2

[7] = system: barnyardgrass (Echinochloa crus-galli); assay: Test A pre-/postemergence plant response
Method in brief: as §2

[8] = system: morningglory (Ipomoea coccinea); assay: Test A pre-/postemergence plant response
Method in brief: as §2

[9] = system: giant foxtail (Setaria faberi); assay: Test A pre-/postemergence plant response
Method in brief: as §2

[10] = system: large crabgrass (Digitaria sanguinalis); assay: Test A pre-/postemergence plant response
Method in brief: as §2

[11] = system: pigweed (Amaranthus retroflexus); assay: Test A pre-/postemergence plant response
Method in brief: as §2

[12] = system: velvetleaf (Abutilon theophrasti); assay: Test A pre-/postemergence plant response
Method in brief: as §2

[13] = Flood (flooded paddy test), 62 g ai/ha, scale 0 to 100, 0 no effect, 100 complete control
[14] = Flood (flooded paddy test), 125 g ai/ha, scale 0 to 100, 0 no effect, 100 complete control
[15] = Flood (flooded paddy test), 250 g ai/ha, scale 0 to 100, 0 no effect, 100 complete control
[16] = Flood, 31 g ai/ha, scale 0 to 100
[17] = Postemergence, 31 g ai/ha, 0 to 100 scale, 0 no effect, 100 complete control
[18] = Postemergence, 125 g ai/ha, 0 to 100 scale, 0 no effect, 100 complete control
[19] = Preemergence, 31 g ai/ha, 0 to 100 scale, 0 is no effect, 100 is complete control
[20] = Preemergence, 125 g ai/ha, 0 to 100 scale (0 no effect, 100 complete control)

Cc1cc(-c2ccc(Cl)cc2)nn1-c1c(OS(=O)(=O)C(C)C)cnn(C)c1=O [Compound 50]
30: Plant response rating, Corn [5, 18]
10: Plant response rating, Barnyardgrass [7, 19]
90: Plant response rating, Foxtail, Giant [9, 20] | Plant response rating, Crabgrass, Large [10, 20]
70: Plant response rating, Barnyardgrass [7, 18] | Plant response rating, Foxtail, Giant [9, 19]
40: Plant response rating, Crabgrass, Large [10, 18]
0: Plant response rating, Sedge, Umbrella [1, 13] | Plant response rating, Sedge, Umbrella [1, 14] | Plant response rating, Sedge, Umbrella [1, 15] | Plant response rating, Sedge, Umbrella [1, 16] | Plant response rating, Barnyardgrass [2, 13] | Plant response rating, Barnyardgrass [2, 14] | Plant response rating, Barnyardgrass [2, 15] | Plant response rating, Barnyardgrass [2, 16] | Plant response rating, Ducksalad [3, 13] | Plant response rating, Ducksalad [3, 14] | Plant response rating, Ducksalad [3, 15] | Plant response rating, Ducksalad [3, 16] | Plant response rating, Rice [4, 13] | Plant response rating, Rice [4, 14] | Plant response rating, Rice [4, 15] | Plant response rating, Rice [4, 16] | Plant response rating, Corn [5, 17] | Plant response rating, Corn [5, 19] | Plant response rating, Wheat [6, 17] | Plant response rating, Wheat [6, 19] | Plant response rating, Barnyardgrass [7, 17] | Plant response rating, Morningglory [8, 17] | Plant response rating, Morningglory [8, 18] | Plant response rating, Morningglory [8, 19] | Plant response rating, Morningglory [8, 20] | Plant response rating, Foxtail, Giant [9, 17] | Plant response rating, Crabgrass, Large [10, 17] | Plant response rating, Pigweed [11, 17] | Plant response rating, Pigweed [11, 18] | Plant response rating, Pigweed [11, 19] | Plant response rating, Pigweed [11, 20] | Plant response rating, Velvetleaf [12, 17] | Plant response rating, Velvetleaf [12, 18] | Plant response rating, Velvetleaf [12, 19] | Plant response rating, Velvetleaf [12, 20]
100: Plant response rating, Barnyardgrass [7, 20]
20: Plant response rating, Corn [5, 20] | Plant response rating, Wheat [6, 18]
60: Plant response rating, Foxtail, Giant [9, 18]
50: Plant response rating, Wheat [6, 20] | Plant response rating, Crabgrass, Large [10, 19]

Cc1ccc(-c2ccc(Cl)cc2)cc1-c1c(O)cnn(C)c1=O [Compound 46]
85: Plant response rating, Ducksalad [3, 15]
60: Plant response rating, Sedge, Umbrella [1, 14] | Plant response rating, Foxtail, Giant [9, 18]
20: Plant response rating, Rice [4, 14] | Plant response rating, Corn [5, 17] | Plant response rating, Foxtail, Giant [9, 17]
50: Plant response rating, Sedge, Umbrella [1, 13] | Plant response rating, Corn [5, 18] | Plant response rating, Wheat [6, 20] | Plant response rating, Barnyardgrass [7, 18] | Plant response rating, Foxtail, Giant [9, 19]
90: Plant response rating, Crabgrass, Large [10, 20]
10: Plant response rating, Crabgrass, Large [10, 19]
100: Plant response rating, Barnyardgrass [7, 20] | Plant response rating, Foxtail, Giant [9, 20]
40: Plant response rating, Sedge, Umbrella [1, 16] | Plant response rating, Barnyardgrass [2, 15] | Plant response rating, Barnyardgrass [7, 19] | Plant response rating, Crabgrass, Large [10, 18]
75: Plant response rating, Sedge, Umbrella [1, 15]
30: Plant response rating, Barnyardgrass [2, 14] | Plant response rating, Ducksalad [3, 13] | Plant response rating, Wheat [6, 18]
0: Plant response rating, Barnyardgrass [2, 13] | Plant response rating, Barnyardgrass [2, 16] | Plant response rating, Rice [4, 13] | Plant response rating, Rice [4, 16] | Plant response rating, Corn [5, 19] | Plant response rating, Corn [5, 20] | Plant response rating, Wheat [6, 17] | Plant response rating, Wheat [6, 19] | Plant response rating, Barnyardgrass [7, 17] | Plant response rating, Morningglory [8, 17] | Plant response rating, Morningglory [8, 18] | Plant response rating, Morningglory [8, 19] | Plant response rating, Morningglory [8, 20] | Plant response rating, Crabgrass, Large [10, 17] | Plant response rating, Pigweed [11, 17] | Plant response rating, Pigweed [11, 18] | Plant response rating, Pigweed [11, 19] | Plant response rating, Pigweed [11, 20] | Plant response rating, Velvetleaf [12, 17] | Plant response rating, Velvetleaf [12, 18] | Plant response rating, Velvetleaf [12, 19] | Plant response rating, Velvetleaf [12, 20]
35: Plant response rating, Rice [4, 15]
45: Plant response rating, Ducksalad [3, 14]

Cc1cc(-c2ccc(Cl)cc2)nn1-c1c(OS(=O)(=O)c2cccc3ccccc23)cnn(C)c1=O [Compound 47]
0: Plant response rating, Sedge, Umbrella [1, 13] | Plant response rating, Sedge, Umbrella [1, 14] | Plant response rating, Sedge, Umbrella [1, 15] | Plant response rating, Sedge, Umbrella [1, 16] | Plant response rating, Barnyardgrass [2, 13] | Plant response rating, Barnyardgrass [2, 14] | Plant response rating, Barnyardgrass [2, 15] | Plant response rating, Barnyardgrass [2, 16] | Plant response rating, Ducksalad [3, 13] | Plant response rating, Ducksalad [3, 14] | Plant response rating, Ducksalad [3, 15] | Plant response rating, Ducksalad [3, 16] | Plant response rating, Rice [4, 13] | Plant response rating, Rice [4, 14] | Plant response rating, Rice [4, 15] | Plant response rating, Rice [4, 16] | Plant response rating, Corn [5, 17] | Plant response rating, Corn [5, 19] | Plant response rating, Wheat [6, 17] | Plant response rating, Wheat [6, 19] | Plant response rating, Barnyardgrass [7, 17] | Plant response rating, Morningglory [8, 17] | Plant response rating, Morningglory [8, 18] | Plant response rating, Morningglory [8, 19] | Plant response rating, Morningglory [8, 20] | Plant response rating, Pigweed [11, 17] | Plant response rating, Pigweed [11, 18] | Plant response rating, Pigweed [11, 19] | Plant response rating, Pigweed [11, 20] | Plant response rating, Velvetleaf [12, 17] | Plant response rating, Velvetleaf [12, 18] | Plant response rating, Velvetleaf [12, 19] | Plant response rating, Velvetleaf [12, 20]
90: Plant response rating, Foxtail, Giant [9, 20] | Plant response rating, Crabgrass, Large [10, 20]
40: Plant response rating, Corn [5, 20] | Plant response rating, Wheat [6, 20] | Plant response rating, Barnyardgrass [7, 18]
80: Plant response rating, Barnyardgrass [7, 20]
10: Plant response rating, Corn [5, 18] | Plant response rating, Wheat [6, 18] | Plant response rating, Foxtail, Giant [9, 17] | Plant response rating, Crabgrass, Large [10, 17] | Plant response rating, Crabgrass, Large [10, 19]
20: Plant response rating, Barnyardgrass [7, 19]
60: Plant response rating, Foxtail, Giant [9, 18]
50: Plant response rating, Crabgrass, Large [10, 18]
70: Plant response rating, Foxtail, Giant [9, 19]

Cc1cc(-c2ccc(Cl)cc2)nn1-c1c(OS(=O)(=O)c2ccc(Cl)s2)cnn(C)c1=O [Compound 55]
50: Plant response rating, Wheat [6, 20]
45: Plant response rating, Sedge, Umbrella [1, 16]
60: Plant response rating, Crabgrass, Large [10, 18]
20: Plant response rating, Foxtail, Giant [9, 17] | Plant response rating, Crabgrass, Large [10, 19]
75: Plant response rating, Sedge, Umbrella [1, 14] | Plant response rating, Ducksalad [3, 15]
90: Plant response rating, Foxtail, Giant [9, 20]
80: Plant response rating, Sedge, Umbrella [1, 15] | Plant response rating, Barnyardgrass [7, 20] | Plant response rating, Foxtail, Giant [9, 19] | Plant response rating, Crabgrass, Large [10, 20]
30: Plant response rating, Rice [4, 15] | Plant response rating, Wheat [6, 18] | Plant response rating, Barnyardgrass [7, 18]
0: Plant response rating, Barnyardgrass [2, 13] | Plant response rating, Barnyardgrass [2, 14] | Plant response rating, Barnyardgrass [2, 16] | Plant response rating, Ducksalad [3, 13] | Plant response rating, Ducksalad [3, 14] | Plant response rating, Ducksalad [3, 16] | Plant response rating, Rice [4, 13] | Plant response rating, Rice [4, 14] | Plant response rating, Rice [4, 16] | Plant response rating, Corn [5, 17] | Plant response rating, Corn [5, 19] | Plant response rating, Wheat [6, 17] | Plant response rating, Wheat [6, 19] | Plant response rating, Barnyardgrass [7, 17] | Plant response rating, Barnyardgrass [7, 19] | Plant response rating, Morningglory [8, 17] | Plant response rating, Morningglory [8, 18] | Plant response rating, Morningglory [8, 19] | Plant response rating, Morningglory [8, 20] | Plant response rating, Pigweed [11, 17] | Plant response rating, Pigweed [11, 18] | Plant response rating, Pigweed [11, 19] | Plant response rating, Pigweed [11, 20] | Plant response rating, Velvetleaf [12, 17] | Plant response rating, Velvetleaf [12, 18] | Plant response rating, Velvetleaf [12, 19] | Plant response rating, Velvetleaf [12, 20]
65: Plant response rating, Barnyardgrass [2, 15]
40: Plant response rating, Corn [5, 18] | Plant response rating, Corn [5, 20]
70: Plant response rating, Sedge, Umbrella [1, 13] | Plant response rating, Foxtail, Giant [9, 18]
10: Plant response rating, Crabgrass, Large [10, 17]

From patent US20100267561A1, “HERBICIDAL PYRIDAZINONE DERIVATIVES” (priority 2007, published 2010)
